Here are results for 5 compounds from EP4700023A1, “GLP-1R RECEPTOR AGONIST COMPOUND SALT AND CRYSTAL FORM THEREOF, PREPARATION METHOD THEREFOR AND USE THEREOF” (Chengdu Vincentage Pharma Co., Ltd., priority 2023, dated 2024).

Each structure is given as a SMILES string. Counter-ions that a name gives are not always drawn.

Series [1] can be described thus: Pharmacokinetic evaluation in rats. The settings on record: in vivo; Rat PK, oral (PO), 10 mg/kg. The series is classed as in vivo. The protocol: Rats were used as test animals, and the plasma drug concentrations at different time points after gavage administration of the test sample were measured. The pharmacokinetic behavior of the compound of the present disclosure in rats was studied to evaluate its metabolic characteristics. For each experimental group, 3 rats with similar body weights were selected and orally administered a single dose of 10 mg/kg. […] Pharmacokinetic parameter calculations were performed using metabolic kinetic data analysis software WinNonlin 7.0 by non-compartmental analysis (NCA) based on plasma concentration data.
A test sample with a final preparation concentration (based on the content of the compound of formula I) of 1.0 mg/mL was prepared for oral administration, using a 0.5% CMC Na aqueous solution as the preparation solvent.
Administration: After overnight fasting (12 hours), rats were administered by gavage at a dose of 10 mg/kg.
The blood samples were placed in heparinized sample tubes, and centrifuged at 4°C and 3500 rpm for 10 minutes to separate plasma, which was then stored at -20°C. Food was provided 2 hours after administration.
Determination of the content of the compound to be tested in rat plasma after gavage administration: After thawing plasma samples at room temperature, 300 µL of internal standard (terfenadine 200 ng/mL, acetonitrile) was added to each sample. The mixtures were vortexed for 1 min and then centrifuged at 4°C and 15400 rpm for 10 min. The supernatant was diluted 20-fold with 80% acetonitrile-water and then injected for LC/MS/MS analysis.

Series [2] can be described thus: Compressibility test (tableting, XRPD detection). The note with it: compressed into tablets. The series is classed as physicochemical.
Series [3] can be described thus: Purity test after storage in an oven at set temperature (stability). The series is classed as physicochemical. The settings on record: HPLC; for Purity, Onset: Onset (before storage); for Purity, 80°C (1 day): oven. The protocol:
Purity test: The sample to be tested was dissolved in a methanol solution, and the sample purity was measured by HPLC.

A short description of series [4]: Hygroscopicity test method (DVS). Type of series: physicochemical. The arrangement: Sorption / Desorption / Hysteresis: unit not given here. The note with it: for Desorption / Sorption / Hysteresis: onset temperature 24.9°C, first cycle. The protocol:
Hygroscopicity test method (DVS): The hygroscopicity of the sample was measured using SMS Intrinsic Plus. The sample was weighed into a sample pan, equilibrated at 25°C until dm/dt was less than 0.002%, and then measured in time mode. The humidity was adjusted from 60%-90%-0%-90%-0% RH, with increments of 10% RH per step, and each humidity level was maintained for 1 hour.

Series [5] in a line: Tableting and grinding test (XRPD, FIG. 21 to 25). Type of series: physicochemical. The settings on record: after tableting, after grinding for 5 minutes and for 2 minutes; FIG. 21 to 23. The method, then:
Grindability test: An appropriate amount of the crystal compound to be tested was placed in a mortar and ground for 2 min and 5 min, followed by XRPD detection. […]

Series [6] can be described thus: Grindability test (mortar, XRPD detection). The series is classed as physicochemical. The note with it: for Grindability (mortar 5 min), solid form: XRPD. The method, then:
Grindability test: An appropriate amount of the crystal compound to be tested was placed in a mortar and ground for 2 min and 5 min, followed by XRPD detection.

The nature of series [7]: Purity test after storage in an oven at set temperature (stability). The settings on record: 80°C, 1 day. Type of series: physicochemical.

Take `O=C(O)c1ccc2nc(CN3CCC(c4ccccc4OCc4ccc(Cl)cc4F)CC3)n(C[C@@H]3CCO3)c2c1` [Crystal form A of the monohydrate of the 2-amino-2-(hydroxymethyl)-1,3-propanediol salt of (S)-2-((4-(2-((4-chloro-2-fluorobenzyl)oxy)phenyl)piperidin-1-yl)methyl)-1-(oxetan-2-aminomethyl)-1H-benzo[d]imidazole-6-carboxylate]: in series [1], the AUC(0-inf) – broadly, total exposure, with the tail of the curve extrapolated – is 772 ng·h/mL; the AUC(0-t) (commonly exposure summed from dosing to a finite time, without extrapolation to infinity) was determined as 765 ng·h/mL; the highest level (Cmax) was 410 ng/mL; the Tmax (as a rule, the time at which the peak concentration occurs) turned out to be 0.41 h. For the same compound, the half-life (as a rule, the time needed for the level to fall by half in the phase considered) in series [1] was 1.59 h.
With `O=C(O)c1ccc2nc(CN3CCC(c4ccccc4OCc4ccc(Cl)cc4F)CC3)n(C[C@@H]3CCO3)c2c1` [Crystal form I of the compound of formula I] [(S)-2-((4-(2-((4-Chloro-2-fluorobenzyl)oxy)phenyl)piperidin-1-yl)methyl)-1-(oxetan-2-aminomethyl)-1H-benzo[d]imidazole-6-carboxylic acid], the “Compressibility (20 Mp)” value in series [2] is given as “Crystal form I, significant reduction in crystallinity”. In addition, the “Purity, Onset” value in series [3] turned out to be 99.27%. In addition, the “Purity, 80°C (1 day)” value in series [3] is on record as 91.81%. In series [4] (80% RH, 25°C, DVS), the “Hygroscopicity (80% RH)” value was determined as 2.5%. Also, the “Hygroscopicity (80% RH), description in words” value in series [4] (80% RH, 25°C, DVS) is “highly hygroscopic”. For the same compound, the Desorption in series [4] (Target humidity 0.0 % P/P0) turned out to be 0.013; in series [4] (Target humidity 10.0 % P/P0) it was 0.807; in series [4] (Target humidity 20.0 % P/P0), 1.307; in series [4] (Target humidity 30.0 % P/P0) it was 1.588; in series [4] (Target humidity 40.0 % P/P0) it was 1.816; in series [4] (Target humidity 50.0 % P/P0), 2.072. Moreover, the Desorption was found to be 2.286 in series [4] (Target humidity 60.0 % P/P0), 2.441 in series [4] (Target humidity 70.0 % P/P0), 2.576 in series [4] (Target humidity 80.0 % P/P0) and 2.685 in series [4] (Target humidity 90.0 % P/P0). In addition, the Sorption came to 0.019 in series [4] (Target humidity 0.0 % P/P0); 0.766 in series [4] (Target humidity 10.0 % P/P0); 1.271 in series [4] (Target humidity 20.0 % P/P0); 1.541 in series [4] (Target humidity 30.0 % P/P0); 1.754 in series [4] (Target humidity 40.0 % P/P0); 1.960 in series [4] (Target humidity 50.0 % P/P0). Also, the Sorption in series [4] (Target humidity 60.0 % P/P0) was determined as 2.161; in series [4] (Target humidity 70.0 % P/P0) it was 2.344; in series [4] (Target humidity 80.0 % P/P0) it was 2.511; in series [4] (Target humidity 90.0 % P/P0) it was 2.685. The Hysteresis in series [4] (Target humidity 10.0 % P/P0) is 0.042; in series [4] (Target humidity 20.0 % P/P0), 0.035; in series [4] (Target humidity 30.0 % P/P0), 0.047; in series [4] (Target humidity 40.0 % P/P0), 0.062; in series [4] (Target humidity 50.0 % P/P0) it was 0.112; in series [4] (Target humidity 60.0 % P/P0), 0.125. Besides, the Hysteresis was found to be 0.097 in series [4] (Target humidity 70.0 % P/P0) and 0.065 in series [4] (Target humidity 80.0 % P/P0). For the same compound, the “Crystallinity after tableting and grinding” value (“Crystallinity” for short) in series [5] is on record as “decreasing crystallinity in different degrees”. Besides, the “Grindability (mortar 5 min), purity” value in series [6] was 99.25%. The “Grindability (mortar 5 min), solid form” value in series [6] is “transformed to amorphous”.
Consider `O=C(O)c1ccc2nc(CN3CCC(c4ccccc4OCc4ccc(Cl)cc4F)CC3)n(C[C@@H]3CCO3)c2c1` [Crystal form II of the compound of formula I] [(S)-2-((4-(2-((4-Chloro-2-fluorobenzyl)oxy)phenyl)piperidin-1-yl)methyl)-1-(oxetan-2-aminomethyl)-1H-benzo[d]imidazole-6-carboxylic acid], for which, in series [2], the “Compressibility (20 Mp)” value is on record as “Crystal form II, significant reduction in crystallinity”. In addition, in series [3], the “Purity, Onset” value was found to be 99.73% and the “Purity, 80°C (1 day)” value worked out at 80.43%. Besides, in series [5], the “Crystallinity” value is on record as “decreasing crystallinity in different degrees”. Besides, in series [7], the “Solid form after 80°C (1 day)” value is on record as “transformed to amorphous”. Besides, in series [6], the “Grindability (mortar 5 min), purity” value stood at 99.7% and the “Grindability (mortar 5 min), solid form” value was “transformed to amorphous”.
`O=C(O)c1ccc2nc(CN3CCC(c4ccccc4OCc4ccc(Cl)cc4F)CC3)n(C[C@@H]3CCO3)c2c1` [Crystal form III of the compound of formula I] [(S)-2-((4-(2-((4-Chloro-2-fluorobenzyl)oxy)phenyl)piperidin-1-yl)methyl)-1-(oxetan-2-aminomethyl)-1H-benzo[d]imidazole-6-carboxylic acid]: in series [2], the “Compressibility (20 Mp)” value was “Crystal form III, no significant reduction in crystallinity”. In series [3], the “Purity, Onset” value is 99.25% and the “Purity, 80°C (1 day)” value was found to be 83.43%. The “Crystallinity” value in series [5] was “decreasing crystallinity in different degrees”. For the same compound, the “Solid form after 80°C (1 day)” value in series [7] is “transformed to amorphous”. In series [6], the “Grindability (mortar 5 min), purity” value is 98.65% and the “Grindability (mortar 5 min), solid form” value is reported as “transformed to amorphous”.
Take `O=C([O-])c1ccc2nc(CN3CCC(c4ccccc4OCc4ccc(Cl)cc4F)CC3)n(C[C@@H]3CCO3)c2c1.[Na+]` [Sodium salt of the compound of formula I, Sodium salt of (S)-2-((4-(2-((4-chloro-2-fluorobenzyl)oxy)phenyl)piperidin-1-yl)methyl)-1-(oxetan-2-aminomethyl)-1H-benzo[d]imidazole-6-carboxylate]: the “Hygroscopicity (80% RH), description in words” value in series [4] (80% RH, 25°C, DVS) is listed as “Highly hygroscopic, deliquescent”.
